Data on four compounds can be found in ChEMBL document CHEMBL1201862, “PubChem BioAssay data set” (2004).

Test systems include SF-268; OVCAR-3; SF-539; RPMI-8226; SN12C; HT-29; MOLT-4; SNB-19; MDA-N; T47D; CCRF-CEM; HCT-15; OVCAR-5; NCI-H522; MDA-MB-435; HCC 2998; UO-31; KM12; MDA-MB-231; SK-MEL-28.
What all share (assay): NCI-60 cell line screen, 48 h

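Values below derive from 48-hour exposures of cells grown in 96-well plates, with endpoints linearly interpolated between the two concentrations bracketing the appropriate inhibition level. The concentration for 50% growth inhibition is given as GI50.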 Active and inactive are the calls of the source. No stated cut-off is given here; in the data, active = GI50 up to about 1.1 µM and inactive = higher.

For the compound `COc1cc(C2c3cc4c(cc3OC(N3CCCCC3)C2C)OCO4)cc(OC)c1O` (stereo not given), the GI50 in the test on SF-268 is 13.8 µM (inactive); with OVCAR-3, 6.12 µM (inactive); in the test with SF-539, 9.64 µM (inactive); in the test with RPMI-8226 it was 9.35 µM (inactive); with SN12C it was 11.4 µM (inactive); in the test on HT-29 it was 8.75 µM (inactive). Also, the GI50 in the test on MOLT-4 was 6.12 µM (inactive); in the test with SNB-19, 16.3 µM (inactive); in the test with MDA-N, 2.14 µM (inactive); with T47D, 11.7 µM (inactive); in the test on CCRF-CEM, 3.4 µM (inactive); with HCT-15, 11.6 µM. In addition, the GI50 was 20.1 µM (inactive) with OVCAR-5; 3.67 µM (inactive) in the test on NCI-H522; 2.21 µM (inactive) with MDA-MB-435; 12.2 µM (inactive) with HCC 2998; 15 µM (inactive) with UO-31; 5.89 µM (inactive) with KM12. Besides, the values for the GI50 with MDA-MB-231 and in the test on SK-MEL-28 were 9.38 µM (inactive) and 9.89 µM (inactive), respectively.

With `NC(Cc1ccc2oc3cc(=O)c4ccccc4c-3nc2c1)C(=O)O` (stereo not given), the GI50 in the test on SF-268 is 43 µM (inactive); in the test with OVCAR-3, 19.6 µM (inactive); in the test with SF-539 it was 20.3 µM (inactive); in the test on RPMI-8226, 42.2 µM (inactive); in the test on SN12C it was 16.4 µM (inactive); with HT-29, 28.7 µM (inactive). The GI50 in the test with MOLT-4 is 41.1 µM (inactive); in the test on SNB-19 it was 22.3 µM (inactive); in the test on MDA-N it was 6.73 µM (inactive); in the test with T47D, 38.5 µM (inactive); in the test with CCRF-CEM it was 40.7 µM (inactive); in the test on HCT-15 it was 17.8 µM. For the same compound, the GI50 with OVCAR-5 was 66.7 µM (inactive); in the test with NCI-H522 it was 39.8 µM (inactive); with MDA-MB-435, 4.4 µM (inactive); in the test on HCC 2998 it was 16 µM (inactive); in the test on UO-31, 33.8 µM (inactive); in the test with KM12, 39.2 µM (inactive). Also, the GI50 was > 79.6 µM (inactive) in the test on MDA-MB-231 and 25.8 µM (inactive) in the test with SK-MEL-28.

Consider `O=C(/C=C/c1ccc(O)cc1)c1ccc(O)cc1` [4,4'-DIHYDROXYCHALCONE], for which the GI50 with SF-268 was 21.4 µM (inactive); in the test on OVCAR-3, 22 µM (inactive); in the test on SF-539, 21.1 µM (inactive); in the test on RPMI-8226 it was 11.2 µM (inactive); in the test with SN12C it was 31.2 µM (inactive); with HT-29, 19.9 µM (inactive). Moreover, the GI50 is 19.3 µM (inactive) in the test with MOLT-4; 32.7 µM (inactive) in the test with SNB-19; 27.4 µM (inactive) in the test with MDA-N; 44.1 µM (inactive) in the test on T47D; 13.6 µM (inactive) in the test with CCRF-CEM; 20.3 µM in the test with HCT-15. The GI50 in the test on OVCAR-5 was 33.3 µM (inactive); with NCI-H522, 3.94 µM (inactive); with MDA-MB-435, 40.2 µM (inactive); in the test with HCC 2998 it was 24 µM (inactive); with UO-31, 22 µM (inactive); with KM12, 11.9 µM (inactive). The GI50 with MDA-MB-231 was 43.7 µM (inactive); in the test with SK-MEL-28, 28.1 µM (inactive).

For the compound `O=[N+]([O-])O` [NITRIC ACID], the GI50 in the test with SF-268, in the test with OVCAR-3, in the test with SF-539, in the test on RPMI-8226, with SN12C and in the test on HT-29 was > 100 µM (inactive) each time. Further, the GI50 in the test with MOLT-4 is > 100 µM (inactive); with SNB-19 it was > 100 µM (inactive); in the test with MDA-N it was > 100 µM (inactive); in the test on T47D it was > 100 µM (inactive); in the test with CCRF-CEM it was > 100 µM (inactive); in the test with HCT-15 it was greater than 100 µM. Besides, the GI50 in the test with OVCAR-5, in the test with NCI-H522, in the test with MDA-MB-435, with HCC 2998, in the test with UO-31 and with KM12 was > 100 µM (inactive) in each case. Besides, the GI50 with MDA-MB-231 and in the test with SK-MEL-28 was > 100 µM (inactive) in each case.
